Test results taken from patent US20220009894A1, “1,2,3,4-TETRAHYDROQUINOXALINE DERIVATIVE, PREPARATION METHOD THEREFOR AND APPLICATION THEREOF” (Abbisko Therapeutics Co., Ltd., priority 2019, published 2022).

Columns and labels:
[1] = target: T1, RORγt-LBD (Homo sapiens, UniProt P51449); test: Time-resolved fluorescence resonance energy-transfer assay (TR-FRET), co-activator peptide recruitment; type: biochemical; parameters: TR-FRET Biochemical Amax: unit not given here; conditions: for EC50: His-RORγt-LBD 30 nM, SRC peptide 500 nM, agonistic activity, averages of one or more measurements, read-out: TR-FRET Biochemical EC50/; for TR-FRET Biochemical Amax: upper activation limit, His-RORγt-LBD, SRC peptide
T1 sequence (P51449 269-508 limits assumed): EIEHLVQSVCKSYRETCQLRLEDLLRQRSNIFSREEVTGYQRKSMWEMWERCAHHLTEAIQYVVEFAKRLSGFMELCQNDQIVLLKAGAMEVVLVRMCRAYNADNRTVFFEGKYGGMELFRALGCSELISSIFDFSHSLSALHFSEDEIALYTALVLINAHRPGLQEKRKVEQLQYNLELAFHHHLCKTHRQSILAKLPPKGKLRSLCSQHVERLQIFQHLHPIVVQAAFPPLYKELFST
Summary of the method: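 This agonist-mode TR-FRET used 30 nM His-tagged RORγt-LBD, 500 nM biotinylated SRC peptide, 0.25 nM Eu-anti-His and 5 nM APC-streptavidin in pH 7.0 Tris/KCl buffer with DTT and Triton. A 7-concentration, 5-fold compound series was incubated at 4 °C overnight plus 1 h at room temperature, and the 665/615 nm signal was read.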

[2] = target: T2, RORγt (Homo sapiens, UniProt P51449); test: RORγt cellular reporter gene detection assay; type: cell-based; conditions: 24 hrs; for EC50: HEK 293 cells co-transfected with pFN26A-RORγt-LBD and pG14.35, in presence of antagonist Ursolic acid, top concentration 50 μM; for Cellular Reporter Assay Amax: upper activation limit, HEK 293 cells, in presence of antagonist Ursolic acid;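 as to Cellular Reporter Assay Amax: Ursolic Acid added as 5 µL of 20 µM medium per well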
T2 construct: The plasmid of pFN26A-RORγt-LBD and pG14.35 (Promega, Cat. No. E1370) were co-transfected into HEK 293 cells; expressed in transfected cells; host or cells: HEK 293 cells (Cat. No. GNHu18)
T2 sequence (P51449 269-508 limits assumed): T1 sequence (P51449 269-508 limits assumed)
Summary of the method: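 Compounds, titrated 4-fold from a 50 μM top concentration, were added with Ursolic acid to HEK293 cells carrying a RORγt-LBD plasmid and a reporter plasmid. After 24 h at 37° C, dual firefly/Renilla luciferase readout; four-parameter curves gave EC50 and maximal activation (Amax).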

Row | Structure (SMILES) | EC50 [1] | TR-FRET Biochemical Amax [1] | EC50 [2] | Cellular Reporter Assay Amax [2]
1 | C/C(=C\c1ccc2c(c1)N(S(=O)(=O)c1cccc(C(F)(F)F)c1)C[C@@H]1CN(C(CO)(CO)C(N)=O)CCN21)c1c(F)cccc1Cl [Example 75, (S,E)-2-(8-(2-(2-chloro-6-fluorophenyl)prop-1-en-1-yl)-6-((3-(trifluoromethyl)phenyl)sulfonyl)-1,2,4,4a,5,6-hexahydro-3H-pyrazino[1,2-a]quinoxalin-3-yl)-3-hydroxy-2-(hydroxymethyl)propanamide] | 0.0557 µM | 0.87 | 1.19 µM | 3.7
2 | C/C(=C\c1ccc2c(c1)N(S(=O)(=O)c1cccc(C(F)(F)F)c1)C[C@@H]1CN(C3(C#N)CCC3)CCN21)c1c(F)cccc1Cl [Example 76, (S,E)-1-(8-(2-(2-chloro-6-fluorophenyl)prop-1-en-1-yl)-6-((3-(trifluoromethyl)phenyl)sulfonyl)-1,2,4,4a,5,6-hexahydro-3H-pyrazino[1,2-a]quinoxalin-3-yl)cyclobutane-1-carbonitrile] | 0.00654 µM | 0.99 | 1.18 µM | 3.2
3 | N#CC1(N2CCN3c4ccc(/C=C/c5c(Cl)cccc5C(F)(F)F)cc4N(S(=O)(=O)c4cccc(C(F)(F)F)c4)C[C@@H]3C2)CCC1 [Example 78, (S,E)-1-(8-(2-chloro-6-(trifluoro-methyl)styryl)-6-((3-(trifluoro-methyl)phenyl)sulfonyl)-1,2,4,4a,5,6-hexahydro-3H-pyra-zino[1,2-a]quinoxalin-3-yl)cyclo-butane-1-carbonitrile] | 0.0052 µM | 0.67 | 0.822 µM | 2.4

The next lines start with the values.

Row | EC50 [1] | TR-FRET Biochemical Amax [1] | EC50 [2] | Cellular Reporter Assay Amax [2] | Structure (SMILES)
4 | 0.04 µM | 0.96 | 0.725 µM | 4.6 | C/C(=C\c1ccc2c(c1)N(S(=O)(=O)c1cccc(C(F)(F)F)c1)C[C@@H]1CN(C(C#N)(CO)CO)CCN21)c1c(F)cccc1Cl [Example 73, (S,E)-2-(8-(2-(2-chloro-6-fluorophenyl)prop-1-en-1-yl)-6-((3-(trifluoromethyl)phenyl)sulfonyl)-1,2,4,4a,5,6-hexahydro-3H-pyrazino[1,2-a]quinoxalin-3-yl)-3-hydroxy-2-(hydroxynethyl)propanenitrile]
5 | 0.0451 µM | 1.20 | 1.04 µM | 6.2 | N#CC(CO)(CO)N1CCN2c3ccc(-c4cc(F)cc(OC(F)F)c4)cc3N(S(=O)(=O)c3cccc(C(F)(F)F)c3)C[C@@H]2C1 [Example 74, (S)-2-(8-(3-(difluoromethoxy)-5-fluorophenyl)-6-((3-(trifluoromethyl)phenyl)sulfonyl)-1,2,4,4a,5,6-hexahydro-3H-pyrazino[1,2-a]quinoxalin-3-yl)-3-hydroxy-2-(hydroxymethyl)propanenitrile]
6 | 0.0183 µM | 0.95 | 1.47 µM | 3.7 | N#CC1(N2CCN3c4ccc(-c5cc(F)cc(OC(F)F)c5)cc4N(S(=O)(=O)c4cccc(C(F)(F)F)c4)C[C@@H]3C2)CCC1 [Example 77, (S)-1-(8-(3-(difluoromethoxy)-5-fluorophenyl)-6-((3-(trifluoro-methyl)phenyl)sulfonyl)-1,2,4,4a,5,6-hexahydro-3H-pyra-zino[1,2-a]quinoxalin-3-yl)cyclo-butane-1-carbonitrile]
7 | 0.0282 µM | 1.15 | 0.267 µM | 2.8 | C/C(=C\c1ccc2c(c1)N(S(=O)(=O)c1cccc(C(F)(F)F)c1)C[C@@H]1CN(C3(C(N)=O)CCC3)CCN21)c1c(F)cccc1Cl [Example 79, (S,E)-1-(8-(2-(2-chloro-6-fluorophenyl)prop-1-en-1-yl)-6-((3-(trifluoromethyl)phenyl)sulfonyl)-1,2,4,4a,5,6-hexahydro-3H-pyrazino[1,2-a]quinoxalin-3-yl)cyclobutane-1-carboxamide]
